Test results from patent publication US12391674B2, “Heterocyclic compounds for the treatment of epilepsy” (OTSUKA PHARMACEUTICAL CO., LTD., priority 2018, dated 2025).
Where two headings read alike, the source gives them in different places.

Tests used:
[1] = test system: DBA/2 mice; test: Audiogenic seizure model; type: in vivo; conditions: Mus musculus, read-out: Seizure suppression
Method in brief: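 Male and female DBA/2 mice (3 weeks old, 8/group) dosed orally at 30 mg/kg in 5% gum arabic; 1 h later exposed to 12.6 kHz, 100-110 dB tone for 1 min or until tonic seizure. Maximum seizure score (0–4) recorded; suppression rate graded A (≥90%), B (70–<90%), C (50–<70%).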

[2] = test system: ICR mice; test: Rotarod test (motor coordination); type: in vivo, mouse; conditions: oral, rotarod 1 hour after administration
Method in brief: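 Motor coordination was assessed in male ICR mice (Japan SLC, Inc., 5-6 weeks old, 8 per group). Animals were first trained to stay for 2 minutes on a rotarod turning at a fixed 15 rpm. One hour after oral dosing, each mouse was placed on a rod accelerating from 4 rpm to 40 rpm over 5 minutes, and latency to fall was recorded for up to 200 seconds. Latencies were expressed relative to the mean of the solvent-treated group.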

[3] = DBA/2 mice, oral, auditory stimulation 1 hour after administration
[4] = DBA/2 mice, oral, dose 30 mg/kg, auditory stimulation 1 hour after administration

Structure (SMILES)	inhibition in vivo at 5 mg/kg [1, 3] [%]	Motor dysfunction ([2]; dose 5 mg/kg)	inhibition in vivo at 30 mg/kg [1, 4] [%]	Motor dysfunction ([2]; dose 30 mg/kg)	also measured
FC(F)(F)c1ncc2ccc(-c3cnc(Oc4ccccc4)nc3)cn12 [Example 285]	> 90	A (a coordination disorder of 25% or less)			
O=C1CCN(c2ccc(Oc3cccc(OC(F)F)c3)cc2)C(=O)N1 [Example 314, 1-{4-[3-(Difluoromethoxy) Phenoxy]Phenyl}Dihydropyrimidine-2,4 (1H,3H)-Dione]			> 90	A (a coordination disorder of 25% or less)	
Cc1cc(-c2cnc(Oc3ccccc3)nc2)ccn1 [Example 22]	> 90	A (a coordination disorder of 25% or less)			
Cn1ncc2ccc(-c3cnc(Oc4ccccc4)nc3)nc21 [Example 275]			> 90	A (a coordination disorder of 25% or less)	
c1ccc(Oc2ncc(-c3ccc4ncccc4n3)cn2)cc1 [Example 143]			> 90	A (a coordination disorder of 25% or less)	
Nc1ccc(-c2cnc(Oc3cccc(F)c3)nc2)nn1 [Example 24, 6-(2-(3-Fluorophenoxy)Pyrimidin-5-Yl)Pyridazin-3-Amine]	> 90	A (a coordination disorder of 25% or less)			
c1ccc(Oc2ncc(-c3ccn4nccc4n3)cn2)cc1 [Example 134]	> 90	B (a coordination disorder of more than 25% and 50% or less)			
[O-][n+]1cccc(-c2cnc(Oc3ccccc3)nc2)c1 [Example 11, 3-(2-Phenoxypyrimidin-5-Yl)Pyridine 1-Oxide]	> 90	A (a coordination disorder of 25% or less)			
Nc1cncc(-c2cnc(Oc3ccccc3)nc2)c1 [Example 58]			> 90	A (a coordination disorder of 25% or less)	
Nc1ccc(-c2cnc(Oc3ccccc3)nc2)cc1 [Example 239, 4-(2-Phenoxypyrimidin-5-Yl) Aniline]			> 90	A (a coordination disorder of 25% or less)	
N#Cc1ccc(-c2cnc(Oc3ccccc3)nc2)nc1 [Example 349]					inhibition in vivo at 3 mg/kg [1, 3]: > 90%; Motor dysfunction ([2]; dose 3 mg/kg): A (a coordination disorder of 25% or less)
O=C1Cc2cc(-c3cnc(Oc4ccccc4)nc3)ccc2N1 [Example 259]	> 90	A (a coordination disorder of 25% or less)			
N#Cc1cc(-c2cnc(Oc3ccccc3)nc2)ccn1 [Example 348]					inhibition in vivo at 1 mg/kg [1, 3]: > 90%; Motor dysfunction ([2]; dose 1 mg/kg): A (a coordination disorder of 25% or less)
FC(F)(F)c1cccc(Oc2ncc(-c3ccc4nccn4c3)cn2)c1 [Example 170]	> 90	A (a coordination disorder of 25% or less)			
O=C1CCN(c2ccc(Oc3cccc(F)c3)nc2)C(=O)N1 [Example 332]			70 to 90	A (a coordination disorder of 25% or less)	
O=C1CCN(c2ccc(Cc3ccc(OC(F)(F)F)cc3)cc2)C(=O)N1 [Example 340]			70 to 90	A (a coordination disorder of 25% or less)	
O=C1CCN(c2ccc(Oc3ccccc3)nc2)C(=O)N1 [Example 320]			> 90	B (a coordination disorder of more than 25% and 50% or less)	
O=c1cnc2cc(-c3cnc(Oc4ccccc4)nc3)ccc2[nH]1 [Example 256]	70 to 90	A (a coordination disorder of 25% or less)			
O=C1CCN(c2ccc(Oc3ccccc3F)cc2)C(=O)N1 [Example 309]			> 90	A (a coordination disorder of 25% or less)	
c1ccc(Oc2ncc(-c3ccn4ccnc4c3)cn2)cc1 [Example 127]	> 90	B (a coordination disorder of more than 25% and 50% or less)			
Nc1cc(-c2cnc(Oc3ccccc3)nc2)ccn1 [Example 55]				A (a coordination disorder of 25% or less)	inhibition in vivo at 30 mg/kg ([1]; po, 1 h): > 90%
COc1ccc(-c2cnc(Oc3cccnc3)nc2)nn1 [Example 74]	> 90	A (a coordination disorder of 25% or less)			

Structure (SMILES)	inhibition in vivo at 5 mg/kg [1, 3] [%]	Motor dysfunction ([2]; dose 5 mg/kg)	inhibition in vivo at 30 mg/kg [1, 4] [%]	Motor dysfunction ([2]; dose 30 mg/kg)	also measured
FC(F)(F)c1ncc(-c2cnc(Oc3ccccc3)nc2)cn1 [Example 296]			> 90	A (a coordination disorder of 25% or less)	
COc1ccc(-c2cnc(Oc3ccccc3F)nc2)nn1 [Example 3]	> 90				Motor dysfunction ([2]; dose 10 mg/kg): A (a coordination disorder of 25% or less)
Cc1nc(N)ccc1-c1cnc(Oc2ccccc2)nc1 [Example 59]					inhibition in vivo at 3 mg/kg [1, 3]: > 90%; Motor dysfunction ([2]; dose 3 mg/kg): A (a coordination disorder of 25% or less)
O=c1ccc(-c2cnc(Oc3ccccc3)nc2)c[nH]1 [Example 103]			> 90	A (a coordination disorder of 25% or less)	
Cc1nc2cc(-c3cnc(Oc4ccccc4)nc3)ccn2c1C [Example 204]		A (a coordination disorder of 25% or less)	> 90		
FC(F)(F)c1nnc2ccc(-c3cnc(Oc4ccccc4)nc3)cn12 [Example 279]					inhibition in vivo at 1 mg/kg [1, 3]: > 90%; Motor dysfunction ([2]; dose 1 mg/kg): A (a coordination disorder of 25% or less)
Cc1cc(Oc2ccccc2)ccc1N1CCC(=O)NC1=O [Example 323]				B (a coordination disorder of more than 25% and 50% or less)	inhibition in vivo at 39 mg/kg ([1]; DBA/2 mice, oral, dose 39 mg/kg, auditory stimulation 1 hour after administration): 70 to 90%
c1ccc(Oc2ncc(-c3ccnnc3)cn2)cc1 [Example 31]	> 90	A (a coordination disorder of 25% or less)			
c1ccc(Oc2ncc(-c3ccn4nncc4c3)cn2)cc1 [Example 184]	> 90	A (a coordination disorder of 25% or less)			
Fc1ccc(Oc2ncc(-c3ccc4nccn4c3)cn2)cc1 [Example 120]	> 90	B (a coordination disorder of more than 25% and 50% or less)			
Nc1nc2ccc(-c3cnc(Oc4ccccc4)nc3)cn2n1 [Example 298]					inhibition in vivo at 1 mg/kg [1, 3]: > 90%; Motor dysfunction ([2]; dose 1 mg/kg): A (a coordination disorder of 25% or less)
O=c1ccc(-c2cnc(Oc3cccc(F)c3)nc2)n[nH]1 [Example 93]			> 90	A (a coordination disorder of 25% or less)	
c1ccc(Oc2ncc(-c3ccc4nncn4c3)cn2)cc1 [Example 129]	> 90	A (a coordination disorder of 25% or less)			
O=C1CCN(c2ccc(Oc3ccccc3F)nc2)C(=O)N1 [Example 331]			70 to 90	A (a coordination disorder of 25% or less)	
Cc1cnc2ccc(-c3cnc(Oc4ccccc4)nc3)cn12 [Example 190]	> 90	A (a coordination disorder of 25% or less)			
Cc1cc(Oc2ccccc2)ncc1N1CCC(=O)NC1=O [Example 325]			70 to 90	A (a coordination disorder of 25% or less)	
CC1(C)CC(=O)NC(=O)N1c1ccc(Oc2ccccc2)cc1 [Example 337, 6,6-Dimethyl-1-(4-Phenoxyphenyl)Dihydropyrimidine-2,4 (1H,3H)-Dione]			> 90	A (a coordination disorder of 25% or less)	
NC(=O)c1ccc(-c2cnc(Oc3ccccc3)nc2)cc1 [Example 243]	> 90	A (a coordination disorder of 25% or less)			
Fc1ccc(-c2cnc(Oc3ccccc3)nc2)cn1 [Example 33]	> 90			A (a coordination disorder of 25% or less)	
Cc1cn2ccc(-c3cnc(Oc4ccccc4)nc3)cc2n1 [Example 181]	70 to 90	A (a coordination disorder of 25% or less)			
N#Cc1cccc(-c2cnc(Oc3ccccc3)nc2)c1 [Example 237]			> 90	A (a coordination disorder of 25% or less)	
